Measurements published in the kinase profiling compilation of Christmann-Franck et al. (2016).

Tests used:
Test in all cases: KINOMEscan competition binding
Settings in all cases: compound 10.0 µM
[1] = system: KIT (human), P10721 [V559D]
[2] = target: CAMK1D (human) (UniProt Q8IU85)
[3] = target: PLK4 (human) (UniProt O00444)
[4] = target: PIK3C2G (human) (UniProt O75747)
[5] = target: CSNK1G2 (human) (UniProt P78368)
[6] = target: MYLK3 (human) (UniProt Q32MK0)
[7] = target: NTRK3 (human) (UniProt Q16288)
[8] = target: MAPKAPK5 (human) (UniProt Q8IW41)
[9] = target: STK32B (human) (UniProt Q9NY57)
[10] = target: CDKL5 (human) (UniProt O76039)
[11] = target: MARK4 (human) (UniProt Q96L34)
[12] = target: EPHA2 (human) (UniProt P29317)
[13] = target: IGF1R (human) (UniProt P08069)
Chain of IGF1R (human) (P08069 whole entry, looked up): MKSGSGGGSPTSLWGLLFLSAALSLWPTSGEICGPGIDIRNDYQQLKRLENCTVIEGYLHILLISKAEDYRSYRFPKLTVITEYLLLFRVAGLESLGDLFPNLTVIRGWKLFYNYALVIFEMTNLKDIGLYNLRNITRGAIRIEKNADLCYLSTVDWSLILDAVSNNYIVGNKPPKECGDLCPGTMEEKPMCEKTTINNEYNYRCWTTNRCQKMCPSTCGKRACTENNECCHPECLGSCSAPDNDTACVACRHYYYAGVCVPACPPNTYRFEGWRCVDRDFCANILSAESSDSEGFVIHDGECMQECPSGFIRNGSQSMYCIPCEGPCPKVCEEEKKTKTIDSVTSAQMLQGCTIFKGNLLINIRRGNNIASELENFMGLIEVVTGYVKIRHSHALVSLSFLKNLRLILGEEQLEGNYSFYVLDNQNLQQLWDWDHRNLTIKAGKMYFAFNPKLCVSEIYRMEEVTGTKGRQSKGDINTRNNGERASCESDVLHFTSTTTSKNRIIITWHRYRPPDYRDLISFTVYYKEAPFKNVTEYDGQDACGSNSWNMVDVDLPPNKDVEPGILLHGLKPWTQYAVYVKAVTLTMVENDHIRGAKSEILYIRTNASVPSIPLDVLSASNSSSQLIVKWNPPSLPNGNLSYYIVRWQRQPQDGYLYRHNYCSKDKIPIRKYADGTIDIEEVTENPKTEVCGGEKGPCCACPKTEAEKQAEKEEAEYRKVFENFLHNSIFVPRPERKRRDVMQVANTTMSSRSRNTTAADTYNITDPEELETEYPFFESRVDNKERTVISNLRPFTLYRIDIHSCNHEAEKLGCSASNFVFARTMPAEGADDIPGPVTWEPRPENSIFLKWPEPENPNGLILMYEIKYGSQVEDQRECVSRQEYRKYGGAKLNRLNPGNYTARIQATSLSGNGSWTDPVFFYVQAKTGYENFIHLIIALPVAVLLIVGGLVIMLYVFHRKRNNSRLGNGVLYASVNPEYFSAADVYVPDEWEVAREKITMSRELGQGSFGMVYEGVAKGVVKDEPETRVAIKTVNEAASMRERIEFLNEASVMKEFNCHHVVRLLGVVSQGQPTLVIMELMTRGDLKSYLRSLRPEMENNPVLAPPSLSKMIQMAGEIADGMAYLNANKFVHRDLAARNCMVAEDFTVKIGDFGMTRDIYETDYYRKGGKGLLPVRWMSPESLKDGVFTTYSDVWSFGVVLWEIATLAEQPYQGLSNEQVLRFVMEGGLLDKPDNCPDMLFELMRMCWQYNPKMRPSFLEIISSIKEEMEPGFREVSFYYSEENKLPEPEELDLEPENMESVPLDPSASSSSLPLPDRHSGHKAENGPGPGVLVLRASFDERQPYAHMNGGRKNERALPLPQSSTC

[14] = target: MATK (human) (UniProt P42679)
[15] = target: PRPF4B (human) (UniProt Q13523)
[16] = target: MYLK4 (human) (UniProt Q86YV6)
[17] = target: PI4KB (human) (UniProt Q9UBF8)
Chain of PI4KB (human) (Q9UBF8 whole entry, looked up): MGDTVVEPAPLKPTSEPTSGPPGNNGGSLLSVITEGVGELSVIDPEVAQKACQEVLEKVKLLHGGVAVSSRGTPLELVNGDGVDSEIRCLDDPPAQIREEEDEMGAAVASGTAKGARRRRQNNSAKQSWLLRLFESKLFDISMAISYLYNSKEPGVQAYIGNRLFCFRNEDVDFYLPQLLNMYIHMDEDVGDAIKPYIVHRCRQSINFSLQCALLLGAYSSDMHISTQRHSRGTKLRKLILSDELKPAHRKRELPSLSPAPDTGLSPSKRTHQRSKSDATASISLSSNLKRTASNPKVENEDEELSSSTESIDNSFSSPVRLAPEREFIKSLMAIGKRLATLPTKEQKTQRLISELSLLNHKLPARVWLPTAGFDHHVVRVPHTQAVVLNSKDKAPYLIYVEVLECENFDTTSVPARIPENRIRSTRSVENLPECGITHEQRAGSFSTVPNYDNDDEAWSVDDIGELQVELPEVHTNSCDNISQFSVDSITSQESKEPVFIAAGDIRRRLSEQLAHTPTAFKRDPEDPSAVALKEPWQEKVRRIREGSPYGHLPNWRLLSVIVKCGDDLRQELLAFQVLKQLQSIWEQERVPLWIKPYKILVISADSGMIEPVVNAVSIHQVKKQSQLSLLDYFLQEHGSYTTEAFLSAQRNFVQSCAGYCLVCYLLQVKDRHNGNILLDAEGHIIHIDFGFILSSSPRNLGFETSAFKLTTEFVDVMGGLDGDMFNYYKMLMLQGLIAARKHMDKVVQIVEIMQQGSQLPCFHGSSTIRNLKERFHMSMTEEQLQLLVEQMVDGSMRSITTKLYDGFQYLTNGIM

[18] = system: FLT3 (human), P36888 [K663Q]
[19] = system: KIT (human), P10721 [D816H]
[20] = target: NEK5 (human) (UniProt Q6P3R8)
Chain of NEK5 (human) (Q6P3R8 whole entry, looked up): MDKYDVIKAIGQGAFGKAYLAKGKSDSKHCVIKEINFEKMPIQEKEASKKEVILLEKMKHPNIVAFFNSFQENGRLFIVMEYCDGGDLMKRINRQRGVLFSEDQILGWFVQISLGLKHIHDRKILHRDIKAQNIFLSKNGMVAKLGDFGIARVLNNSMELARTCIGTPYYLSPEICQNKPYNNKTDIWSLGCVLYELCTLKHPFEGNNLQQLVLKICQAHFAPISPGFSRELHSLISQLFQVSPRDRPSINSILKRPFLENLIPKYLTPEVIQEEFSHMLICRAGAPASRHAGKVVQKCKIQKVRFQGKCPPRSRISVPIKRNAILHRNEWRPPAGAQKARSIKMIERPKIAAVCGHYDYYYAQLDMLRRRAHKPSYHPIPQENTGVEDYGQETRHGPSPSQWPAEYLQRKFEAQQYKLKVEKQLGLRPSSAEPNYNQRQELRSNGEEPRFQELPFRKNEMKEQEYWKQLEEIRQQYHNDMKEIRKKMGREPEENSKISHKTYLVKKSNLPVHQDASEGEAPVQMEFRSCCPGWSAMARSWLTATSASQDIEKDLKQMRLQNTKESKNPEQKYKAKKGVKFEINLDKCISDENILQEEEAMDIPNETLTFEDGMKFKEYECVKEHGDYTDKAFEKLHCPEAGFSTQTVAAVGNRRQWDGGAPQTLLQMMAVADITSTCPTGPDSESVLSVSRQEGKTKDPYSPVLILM

[21] = target: SGK3 (human) (UniProt Q96BR1)
[22] = target: TNNI3K (human) (UniProt Q59H18)
[23] = target: DCLK2 (human) (UniProt Q8N568)
[24] = target: MAP3K2 (human) (UniProt Q9Y2U5)
Chain of MAP3K2 (human) (Q9Y2U5 whole entry, looked up): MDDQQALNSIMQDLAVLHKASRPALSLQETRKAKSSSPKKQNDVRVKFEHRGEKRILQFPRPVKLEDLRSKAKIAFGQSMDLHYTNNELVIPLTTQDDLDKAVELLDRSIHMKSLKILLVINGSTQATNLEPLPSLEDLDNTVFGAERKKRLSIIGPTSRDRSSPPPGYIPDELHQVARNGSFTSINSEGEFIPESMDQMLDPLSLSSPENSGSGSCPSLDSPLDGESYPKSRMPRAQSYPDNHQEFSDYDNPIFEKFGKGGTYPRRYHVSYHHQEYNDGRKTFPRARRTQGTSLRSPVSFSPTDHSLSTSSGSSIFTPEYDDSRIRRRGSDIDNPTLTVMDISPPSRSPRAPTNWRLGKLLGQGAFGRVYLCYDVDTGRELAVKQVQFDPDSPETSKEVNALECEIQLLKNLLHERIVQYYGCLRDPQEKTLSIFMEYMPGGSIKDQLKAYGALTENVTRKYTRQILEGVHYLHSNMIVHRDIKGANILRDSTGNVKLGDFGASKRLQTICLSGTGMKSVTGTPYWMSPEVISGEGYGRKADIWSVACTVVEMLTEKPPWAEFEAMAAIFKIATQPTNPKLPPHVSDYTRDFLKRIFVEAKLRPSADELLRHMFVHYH

[25] = target: ULK1 (human) (UniProt O75385)
[26] = target: BMPR1A (human) (UniProt P36894)
[27] = target: TYK2 JH2 pseudokinase (human) (UniProt P29597)
[28] = target: STK35 (human) (UniProt Q8TDR2)
Chain of STK35 (human) (Q8TDR2 whole entry, looked up): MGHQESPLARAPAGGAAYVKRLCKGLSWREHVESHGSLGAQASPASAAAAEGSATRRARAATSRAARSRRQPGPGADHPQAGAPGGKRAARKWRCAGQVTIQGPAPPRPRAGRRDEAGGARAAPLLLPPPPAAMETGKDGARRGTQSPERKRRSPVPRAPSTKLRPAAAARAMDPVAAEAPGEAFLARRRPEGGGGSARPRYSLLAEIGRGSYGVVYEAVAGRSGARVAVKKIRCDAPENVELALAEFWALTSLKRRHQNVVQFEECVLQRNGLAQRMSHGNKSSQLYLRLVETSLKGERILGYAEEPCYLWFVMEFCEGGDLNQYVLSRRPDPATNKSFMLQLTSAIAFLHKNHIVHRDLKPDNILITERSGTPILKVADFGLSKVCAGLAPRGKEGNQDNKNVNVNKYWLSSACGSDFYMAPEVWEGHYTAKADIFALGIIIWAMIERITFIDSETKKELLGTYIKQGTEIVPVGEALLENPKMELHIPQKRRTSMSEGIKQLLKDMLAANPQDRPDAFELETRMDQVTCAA

[29] = target: ADCK4 (human) (UniProt Q96D53)
[30] = system: EGFR (human), P00533 [L861Q]
[31] = target: SRMS (human) (UniProt Q9H3Y6)
[32] = target: CDK5 (human) (UniProt Q00535)
[33] = target: CDK17 (human) (UniProt Q00537)
[34] = system: EGFR (human), P00533 [G719C]
[35] = system: FGFR3 (human), P22607 [G697C]
[36] = target: CDK15 (human) (UniProt Q96Q40)
Chain of CDK15 (human) (Q96Q40 whole entry, looked up): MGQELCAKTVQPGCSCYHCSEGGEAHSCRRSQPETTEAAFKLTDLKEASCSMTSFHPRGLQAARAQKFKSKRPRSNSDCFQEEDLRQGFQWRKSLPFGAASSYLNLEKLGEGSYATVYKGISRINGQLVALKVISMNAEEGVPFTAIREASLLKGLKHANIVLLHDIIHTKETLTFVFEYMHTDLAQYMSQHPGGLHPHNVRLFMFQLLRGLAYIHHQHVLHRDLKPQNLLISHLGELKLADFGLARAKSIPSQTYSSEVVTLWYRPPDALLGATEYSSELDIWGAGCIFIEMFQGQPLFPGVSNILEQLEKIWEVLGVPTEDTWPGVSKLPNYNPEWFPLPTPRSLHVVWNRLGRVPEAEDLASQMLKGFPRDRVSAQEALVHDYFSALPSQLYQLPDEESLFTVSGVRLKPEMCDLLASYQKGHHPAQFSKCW

[37] = target: PIM1 (human) (UniProt P11309)
[38] = target: MAPK4 (human) (UniProt P31152)
[39] = target: PAK3 (human) (UniProt O75914)
[40] = target: CLK2 (human) (UniProt P49760)
[41] = target: JAK2 JH1 catalytic (human) (UniProt O60674)
[42] = target: TSSK1B (human) (UniProt Q9BXA7)

Chain of CAMK1D (human) (Q8IU85 whole entry, looked up): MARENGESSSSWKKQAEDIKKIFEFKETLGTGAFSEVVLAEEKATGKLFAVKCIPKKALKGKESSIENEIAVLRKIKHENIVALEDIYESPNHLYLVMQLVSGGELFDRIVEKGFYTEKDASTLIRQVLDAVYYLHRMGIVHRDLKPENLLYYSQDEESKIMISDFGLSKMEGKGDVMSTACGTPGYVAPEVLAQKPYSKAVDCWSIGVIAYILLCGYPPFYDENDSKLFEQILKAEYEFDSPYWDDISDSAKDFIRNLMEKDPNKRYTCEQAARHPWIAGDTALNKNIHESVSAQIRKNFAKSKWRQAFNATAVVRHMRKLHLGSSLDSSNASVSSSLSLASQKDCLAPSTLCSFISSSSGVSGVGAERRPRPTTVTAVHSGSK

Cc1cc([C@@H](C)Nc2ccccc2C(=O)O)c2nc(N3CCOCC3)cc(=O)n2c1
kinase still bound, per cent of control [1]: 93% | kinase still bound, per cent of control [2]: 93% | kinase still bound, per cent of control [3]: 100% | kinase still bound, per cent of control [4]: 16% | kinase still bound, per cent of control [5]: 100% | kinase still bound, per cent of control [6]: 82% | kinase still bound, per cent of control [7]: 75% | kinase still bound, per cent of control [8]: 90% | kinase still bound, per cent of control [9]: 100% | kinase still bound, per cent of control [10]: 82% | kinase still bound, per cent of control [11]: 100% | kinase still bound, per cent of control [12]: 99% | kinase still bound, per cent of control [13]: 100% | kinase still bound, per cent of control [14]: 57% | kinase still bound, per cent of control [15]: 100% | kinase still bound, per cent of control [16]: 75% | kinase still bound, per cent of control [17]: 89% | kinase still bound, per cent of control [18]: 15% | kinase still bound, per cent of control [19]: 93% | kinase still bound, per cent of control [20]: 100% | kinase still bound, per cent of control [21]: 100% | kinase still bound, per cent of control [22]: 15% | kinase still bound, per cent of control [23]: 100% | kinase still bound, per cent of control [24]: 88% | kinase still bound, per cent of control [25]: 73% | kinase still bound, per cent of control [26]: 79% | kinase still bound, per cent of control [27]: 95% | kinase still bound, per cent of control [28]: 96% | kinase still bound, per cent of control [29]: 95% | kinase still bound, per cent of control [30]: 76% | kinase still bound, per cent of control [31]: 100% | kinase still bound, per cent of control [32]: 100% | kinase still bound, per cent of control [33]: 100% | kinase still bound, per cent of control [34]: 100% | kinase still bound, per cent of control [35]: 100% | kinase still bound, per cent of control [36]: 100% | kinase still bound, per cent of control [37]: 100% | kinase still bound, per cent of control [38]: 82% | kinase still bound, per cent of control [39]: 12% | kinase still bound, per cent of control [40]: 100% | kinase still bound, per cent of control [41]: 71% | kinase still bound, per cent of control [42]: 79%
